Source: patent US11771086B2, “Pest control composition including novel iminopyridine derivative” (priority 2012, dated 2023)
Where two headings read alike, the source gives them in different places.

Columns and labels:
Plutella xylostella = test: whole plant or invertebrate; type: in vivo
Description: After an air drying process, second instar larvae were released thereto. […] The test was performed in duplicate.
(§1) Method for Judging Synergistic Effects

Aphis gossypii = test: whole plant or invertebrate; type: in vivo
Description: The test was performed in duplicate.
as §1

Spodoptera litura = test: whole plant or invertebrate; type: in vivo; settings: for Theoretical value by Colby's equation: Spodoptera litura; for Mortality of single agent against Spodoptera litura: cabbage leaf disk spray, three days
Description: After an air drying process, third instar larvae were released thereto. […] The test was performed in duplicate.
as §1

rice blast = type: in vivo; settings: single agent 0.5 ppm; foliar application; fourteen days after inoculation
Rhizoctonia solani = test: Test Example 12 Test of control of rice sheath blight (Rhizoctonia solani); type: in vivo; settings: single agent 5 ppm; foliar spray; six days after inoculation
Laodelphax striatellus = test: Test Example 14 Test with Laodelphax striatellus by soil irrigation treatment (mixture with paddy herbicide); type: in vivo; settings: single agent 0.05 mg/seedling, five days after release
Description: After standing for three days, second instar larvae were released thereto. […] The test was performed in duplicate.

Laodelphax striatella = test: whole plant or invertebrate; settings: for mortality at 0.005 mg/seedling: read-out: Mortality of single agent against Laodelphax striatella, single agent 0.005 mg/Seedling; for Theoretical value by Colby's equation: Laodelphax striatella soil irrigation, single agent 0.5 mg/Seedling (other component 0); for Mortality of single agent against Laodelphax striatella: single agent 0.5 mg/Seedling
Description: (§2) After the rice seedling was left to stand for 3 days, second instar larvae were released thereto. Thereafter, the larvae were left to stand in a thermostatic chamber (16 hours of light period-8 hours of dark period) at 25° C. […] The test was performed in duplicate. Mortality of larvae (%)={number of dead larvae/(number of survived larvae+number of dead larvae)}×100
B: 100−(mortality of larvae or adults when treated only with each of imidacloprid, fipronil, chlorantraniliprole, spinosad, clothianidin, dinotefuran, sulfoxaflor, pymetrozine, thiamethoxam, flupyradifurone and cycloxaprid))
as §1
When the mortality against Laodelphax striatella in the case of a mixture with another agent exceeded the theoretical value by the Colby's equation, a synergistic effect was judged to be present.

Callosobruchus chinensis = type: in vivo; settings: single agent 0.2 ng/head; topical; one day
Description: A compound of Formula (I) and the insecticide indicated below, prepared in predetermined concentrations using acetone, were separately topically applied to the back of the same adult Callosobruchus chinensis. […] The test was performed in duplicate. Insect mortality (%)={number of dead insects/(number of survived insects+number of dead insects)}×100
(A: 100−(insect mortality for treatment with only Compound P212)
B: 100−(insect mortality for treatment with only the insecticide fipronil or imidacloprid))
as §1

Chilo suppressalis = type: in vivo; settings: for Mortality of single agent against Chilo suppressalis: soil irrigation, six days after release
Description: After standing for 3 days, second instar larvae were released thereto. […] The test was performed in duplicate.
as §1

Naranga aenescens = type: in vivo; settings: for Mortality of single agent against Naranga aenescens: soil irrigation, five days after release
Description: After standing for 3 days, first instar larvae were released thereto. […] The test was performed in duplicate.
as §1

[1] = tested on: Nilaparvata lugens resistant population II; test: Reference Test Example 19 Pest control test of Nilaparvata lugens, resistant population II (soil drench); type: in vivo; settings: for Insecticidal effects against Nilaparvata lugens (death rate %), Resistant population II: soil drench, six days
Description: (§3) Three days after the treatment, ten second instar larvae of Nilaparvata lugens, which had been collected outdoors and proliferated indoors, were each released to the rice seedling. […] Test in duplicate.
(§4) Furthermore, for comparison, the test against a species of Nilaparvata lugens which is highly susceptible to imidacloprid was performed by the same method as described above, and the results thereof are shown in Table 45. […] Meanwhile, the death rates of imidacloprid at 0.05 mg/seedling were (susceptible species) 100%, (resistant population I) 38% and (resistant population II) 69%, and the insecticidal effect thereof was also low even at a high dose. From the above results, it became obvious that Compound P212 and Compound 1-20 have high insecticidal effects even against Nilaparvata lugens resistance against imidacloprid.
(§5) Further, for the origin of test pests, bugs collected outdoors from the Kumamoto prefecture (I) in 2007 and from the Fukuoka prefecture (II) in 2005 as resistant population of Nilaparvata lugens, and bugs collected from the Kagoshima prefecture and then successively reared indoors for a long time as the imidacloprid susceptible population of Nilaparvata lugens were used.

[2] = tested on: Nilaparvata lugens resistant population I; test: Reference Test Example 19 Pest control test of Nilaparvata lugens, resistant population I (soil drench); type: in vivo
Description: as §3, §4, §5

[3] = tested on: Frankliniella occidentalis; test: whole plant or invertebrate
Description: as §2, with “an air drying process, first” for “the rice seedling was left to stand for 3 days, second”
(A: 100−(mortality of larvae or adults when treated only with Compound P212)
B: 100−(mortality of larvae or adults when treated with only the insecticide imidacloprid, dinotefuran, or acetamiprid))
as §1
When the mortality against Frankliniella occidentalis in the case of a mixture with another agent exceeded the theoretical value given by Colby's equation, a synergistic effect was judged to be present.

[4] = tested on: Haemaphysalis longicornis; test: whole plant or invertebrate; type: in vivo; settings: Haemaphysalis longicornis, topical, 120 h, read-out: Mortality of single agent against Haemaphysalis longicornis, single agent 1.9 μg; capsule on mouse; five days; mortality and agonal rate
Description: A capsule with a diameter of 2 cm and a height of 2 cm was attached to the dorsal surface of a mouse. A compound of Formula (I), ivermectin, moxidectin, permethrin, amitraz, fipronil, spinetram and the mixture of the compound of Formula (I) and each insecticide were dissolved in ethanol at the concentrations given in […], and each of these was dripped onto the surface of a mouse body within a capsule. After thorough drying, eight Haemaphysalis longicornis nymphs were released and the top of the capsule was sealed with a lid. The mouse was kept in a cage at 25° C. using a 12-hour light period and a 12-hour dark period. Five days after the release, the capsule was removed and the number of surviving and dead nymphs and the number of engorged individuals were counted and the insect mortality and agonal rate was calculated by the following equation. Insect mortality and agonal rate (%)={number of dead and agonal insects/(number of survived insects+number of dead and agonal insects)}×100

[5] = tested on: Nilaparvata lugens susceptible species (highly susceptible to imidacloprid); test: Reference Test Example 19 Pest control test of Nilaparvata lugens, imidacloprid susceptible species (soil drench); type: in vivo; settings: for Insecticidal effects against Nilaparvata lugens (death rate %), Susceptible population: soil drench, six days
Description: as §3, §4, §5

[6] = Laodelphax striatellus, soil, 72 h, soil irrigation

C[C@]1(COC(=O)C2CC2)[C@@H]2C[C@H](O)[C@@]3(C)Oc4cc(-c5cccnc5)oc(=O)c4[C@H](O)[C@@H]3[C@@]2(C)CC[C@@H]1OC(=O)C1CC1 [Afidopyropen]
Theoretical value by Colby's equation (Plutella xylostella; Plutella xylostella, single agent 5 ppm (other component 0)): 0%
Theoretical value by Colby's equation (Plutella xylostella; Plutella xylostella, single agent 10 ppm (other component 0)): 20%
Mortality of single agent against Plutella xylostella (Plutella xylostella; single agent 5 ppm, cabbage leaf disk spray, three days): 0%
Mortality of single agent against Plutella xylostella (Plutella xylostella; single agent 10 ppm, cabbage leaf disk spray, three days): 20%
Theoretical value by Colby's equation (Aphis gossypii; Aphis gossypii, single agent 0.002 ppm (other component 0)): 25%
Mortality of single agent against Aphis gossypii (Aphis gossypii; single agent 0.002 ppm, cucumber leaf disk spray, three days): 25%
Theoretical value by Colby's equation (Spodoptera litura; single agent 5 ppm (other component 0)): 0%
Theoretical value by Colby's equation (Spodoptera litura; single agent 10 ppm (other component 0)): 0%
Mortality of single agent against Spodoptera litura (Spodoptera litura; single agent 5 ppm): 0%
Mortality of single agent against Spodoptera litura (Spodoptera litura; single agent 10 ppm): 0%

CO/C=C(/C(=O)OC)c1ccccc1Oc1cc(Oc2ccccc2C#N)ncn1 [Azoxystrobin]
Preventive value (Rice blast test, number of lesions) (rice blast): 37
Preventive value (Sheath blight test, lesion height) (Rhizoctonia solani): 95

CCN(CC)C(=O)n1cnc(S(=O)(=O)c2c(C)cc(C)cc2C)n1 [Cafenstrole]
Mortality of larvae (Laodelphax striatellus) (Laodelphax striatellus): 0%

CCCCOC(=O)[C@@H](C)Oc1ccc(Oc2ccc(C#N)cc2F)cc1 [Cyhalofop-butyl]
Mortality of larvae (Laodelphax striatellus) (Laodelphax striatellus): 0%

Cc1ccc(NC(=O)NC(C)(C)c2ccccc2)cc1 [Daimuron]
Mortality of larvae (Laodelphax striatellus) (Laodelphax striatellus): 0%

N#Cc1nn(-c2c(Cl)cc(C(F)(F)F)cc2Cl)c(N)c1[S+]([O-])C(F)(F)F (stereo not drawn) [Fipronil]
mortality at 0.001 mg/seedling (Laodelphax striatella; Laodelphax striatellus, soil, 72 h, read-out: Mortality of single agent against Laodelphax striatella, single agent 0.001 mg/Seedling, soil irrigation): 0%
mortality at 0.005 mg/seedling (Laodelphax striatella; [6]): 26%
Mortality of single agent against Callosobruchus chinensis (Callosobruchus chinensis): 0%
Theoretical value by Colby's equation (Plutella xylostella; 0.04 ppm): 50%
mortality at 0.04 ppm (Plutella xylostella; Plutella xylostella, foliar, 72 h, read-out: Mortality of single agent against Plutella xylostella, single agent 0.04 ppm, cabbage leaf disk spray, three days): 50%
Mortality of single agent against Chilo suppressalis (Chilo suppressalis; single agent 0.0005 mg/seedling): 40%
Mortality of single agent against Naranga aenescens (Naranga aenescens; single agent 0.01 mg/seedling): 20%

CNC(=O)/C(=N/OC)c1ccccc1CO/N=C(C)/C(=N/OC)C(/C)=N/OC [Orysastrobin]
Theoretical value by Colby's equation (Laodelphax striatella): 4%
Mortality of single agent against Laodelphax striatella (Laodelphax striatella; soil irrigation): 4%
Preventive value (Rice blast test, number of lesions) (rice blast): 20
Preventive value (Sheath blight test, lesion height) (Rhizoctonia solani): 72

OCC1=C[C@H](N[C@H]2C[C@H](CO)[C@@H](O[C@@H]3O[C@H](CO)[C@@H](O)[C@H](O)[C@H]3O)[C@H](O)[C@H]2O)[C@H](O)[C@@H](O)[C@@H]1O [Validamycin]
Preventive value (Sheath blight test, lesion height) (Rhizoctonia solani): 32

O=[N+]([O-])NC1=NCCN1Cc1ccc(Cl)nc1 [imidacloprid, reference compound]
death rates ([1]; resistant population II, 0.05 mg/seedling, six days after the release): 69%
Insecticidal effects against Nilaparvata lugens (death rate %), Resistant population II ([1]; throughput 0.01 mg/seedling): 39%
Insecticidal effects against Nilaparvata lugens (death rate %), Resistant population II ([1]; throughput 0.05 mg/seedling): 69%
mortality at 0.005 mg/seedling (Laodelphax striatella; [6]): 0%
death rates ([2]; resistant population I, 0.05 mg/seedling, six days after the release): 38%
Insecticidal effects against Nilaparvata lugens (death rate %), Resistant population I ([2]; throughput 0.05 mg/seedling, soil drench, six days): 38%
Mortality of single agent against Callosobruchus chinensis (Callosobruchus chinensis): 40%
Theoretical value by Colby's equation ([3]; 20 ppm): 69%
mortality at 20 ppm ([3]; Frankliniella occidentalis, foliar, 72 h, read-out: Mortality of single agent against Frankliniella occidentalis): 69%
mortality at 0.0019 mg [4]: 7.7%
death rates ([5]; susceptible species, 0.05 mg/seedling, six days after the release): 100%
Insecticidal effects against Nilaparvata lugens (death rate %), Susceptible population ([5]; throughput 0.01 mg/seedling): 100%
Insecticidal effects against Nilaparvata lugens (death rate %), Susceptible population ([5]; throughput 0.05 mg/seedling): 100%

Spinosad
Theoretical value by Colby's equation (Laodelphax striatella): 0%
Mortality of single agent against Laodelphax striatella (Laodelphax striatella; soil irrigation): 0%
Theoretical value by Colby's equation (Plutella xylostella; Plutella xylostella, single agent 0.01 ppm (other component 0)): 11%
Mortality of single agent against Plutella xylostella (Plutella xylostella; single agent 0.01 ppm, cabbage leaf disk spray, three days): 11%
Theoretical value by Colby's equation (Chilo suppressalis; Chilo suppressalis, single agent 0.002 mg/seedling (other component 0)): 80%
Mortality of single agent against Chilo suppressalis (Chilo suppressalis; single agent 0.002 mg/seedling): 80%
Theoretical value by Colby's equation (Naranga aenescens; Naranga aenescens, single agent 0.005 mg/seedling (other component 0)): 40%
Mortality of single agent against Naranga aenescens (Naranga aenescens; single agent 0.005 mg/seedling): 40%
